Where two headings read alike, the source gives them in different places.
Molecular target: T1, MRGPRX4 (Homo sapiens, UniProt Q96LA9)
T1 construct: expressed in transfected cells; host or cells: HEK293T
Assay: IP1 accumulation HTRF assay, MRGPRX4
Format: cell-based
Design: key to IP1 Basal / IP1 accumulation with YM (Figure 1c) / response to agonist, MRGPRX4 / IP1 accumulation: % IP1: unstimulated mock-transfected = 0%, fully stimulated MRGPRX4 = 100%
Settings: for Emax: HEK-293T

T1 sequence (Q96LA9 whole entry): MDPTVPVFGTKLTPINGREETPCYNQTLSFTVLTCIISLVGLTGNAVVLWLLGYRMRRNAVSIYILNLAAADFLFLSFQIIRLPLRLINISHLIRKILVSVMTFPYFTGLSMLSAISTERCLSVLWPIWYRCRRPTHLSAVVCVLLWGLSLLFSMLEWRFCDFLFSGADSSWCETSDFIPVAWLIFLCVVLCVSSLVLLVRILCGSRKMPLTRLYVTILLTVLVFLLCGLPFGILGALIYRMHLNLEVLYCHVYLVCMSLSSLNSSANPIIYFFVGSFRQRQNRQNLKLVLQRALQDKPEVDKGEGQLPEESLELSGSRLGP

With `C[C@H](CCC(=O)NCCS(=O)(=O)O)[C@H]1CC[C@H]2[C@@H]3CC[C@@H]4C[C@H](O)CC[C@]4(C)[C@H]3C[C@H](O)[C@]12C` [TDCA, Taurodeoxycholic acid] the activation at 100 µM (2 h, log [agonist] (M) -4, MRGX4-transfected, individual replicates, read-out: IP1 accumulation, dose-response (Figure 1a)) was 48.8%, the activation at 33.333 µM (2 h, log [agonist] (M) -4.47712, MRGX4-transfected, individual replicates, read-out: IP1 accumulation, dose-response (Figure 1a)) was 32.5% and the activation at 11.111 µM (2 h, log [agonist] (M) -4.95424, MRGX4-transfected, individual replicates, read-out: IP1 accumulation, dose-response (Figure 1a)) was 22.8%. It also gave an activation at 3.7037 µM (2 h, log [agonist] (M) -5.43136, MRGX4-transfected, individual replicates, read-out: IP1 accumulation, dose-response (Figure 1a)) of 12.8%, an activation at 1.2346 µM (2 h, log [agonist] (M) -5.90849, MRGX4-transfected, individual replicates, read-out: IP1 accumulation, dose-response (Figure 1a)) of 12.2% and an activation at 0.4115 µM (2 h, log [agonist] (M) -6.38561, MRGX4-transfected, individual replicates, read-out: IP1 accumulation, dose-response (Figure 1a)) of 12.6%. For the same compound, the activation at 0.13717 µM (2 h, log [agonist] (M) -6.86273, MRGX4-transfected, individual replicates, read-out: IP1 accumulation, dose-response (Figure 1a)) was 10.1%, the “response to agonist, MRGPRX4” value (Figure 4c-f, agonist 100µM, MRGPRX4 alone (reference = 100)) was 100 and the Emax (MRGPRX4 (Fig. 1A), HEK293T, normalized to 100 μM nateglinide, read-out: IP1 Emax) was 84.2%. For the same compound, the Emax (MRGPRX4 (Fig. 1A), HEK293T, normalized to 100 μM nateglinide, read-out: IP1 span) was 69.6%, the “IP1 Basal” value (MRGPRX4 (Fig. 1A), HEK293T, normalized to 100 μM nateglinide) was 14.54 and the EC50 (MRGPRX4 (Fig. 1A), HEK293T, normalized to 100 μM nateglinide, read-out: IP1 EC50) was 53.2 µM.
